# Measured values published in ChEMBL document CHEMBL1629422, “Synthesis and antimicrobial evaluation of some fused heterocyclic [1,2,4]triazolo[3,4-b][1,3,4]thiadiazole derivatives” (2010).
# How the values were obtained:
# Format in all cases: functional
# Escherichia coli = assay: Antimicrobial activity against Escherichia coli ATCC 25922 after18 to 20 hrs by broth dilution method
# Pseudomonas aeruginosa = assay: Antimicrobial activity against Pseudomonas aeruginosa ATCC 27853 after18 to 20 hrs by broth dilution method
# Bacillus cereus = assay: Antimicrobial activity against Bacillus cereus ATCC 13061 after18 to 20 hrs by broth dilution method
# [1] = system: Staphylococcus epidermidis; assay: Antimicrobial activity against Staphylococcus epidermidis ATCC 14990 after18 to 20 hrs by broth dilution method
# Enterobacter cloacae = assay: Antimicrobial activity against Enterobacter cloacae ATCC 49141 after18 to 20 hrs by broth dilution method
# Acinetobacter baumannii = assay: Antimicrobial activity against Acinetobacter baumannii ATCC 19606 after18 to 20 hrs by broth dilution method
# Citrobacter freundii = assay: Antimicrobial activity against Citrobacter freundii ATCC 8090 after18 to 20 hrs by broth dilution method
# Enterococcus faecalis = assay: Antimicrobial activity against Enterococcus faecalis ATCC 29212 after18 to 20 hrs by broth dilution method
# Candida albicans = assay: Antimicrobial activity against Candida albicans ATCC 90028 after 48 hrs by broth dilution method; settings: ATCC 90028, 48 h
# Staphylococcus aureus = assay: Antimicrobial activity against Staphylococcus aureus ATCC 25923 after18 to 20 hrs by broth dilution method
Compound,MIC (Escherichia coli) [µg/mL],MIC (Pseudomonas aeruginosa) [µg/mL],MIC (Bacillus cereus) [µg/mL],MIC [1] [µg/mL],MIC (Enterobacter cloacae) [µg/mL],MIC (Acinetobacter baumannii) [µg/mL],MIC (Citrobacter freundii) [µg/mL],MIC (Enterococcus faecalis) [µg/mL],MIC (Candida albicans) [µg/mL],MIC (Staphylococcus aureus) [µg/mL]
O=S(=O)(c1ccccc1)c1ccc(-c2nnc3sc(-c4ccc(Cl)c(Br)c4)nn23)cc1,128,128,256,128,512,256,1020,128,512,256
O=S(=O)(c1ccc(Br)cc1)c1ccc(-c2nnc3sc(-c4ccc(Br)cc4)nn23)cc1,256,256,1020,64,256,256,128,128,128,256
O=S(=O)(c1ccc(Br)cc1)c1ccc(-c2nnc3sc(-c4ccc(Cl)cc4)nn23)cc1,128,512,256,128,512,256,512,64,1020,128
COc1ccc(-c2nn3c(-c4ccc(S(=O)(=O)c5ccc(Br)cc5)cc4)nnc3s2)cc1,256,512,256,512,1020,256,512,512,512,128
Nc1ccc(-c2nn3c(-c4ccc(S(=O)(=O)c5ccc(Br)cc5)cc4)nnc3s2)cc1,256,512,128,512,1020,1020,512,512,512,256
NCc1ccc(-c2nn3c(-c4ccc(S(=O)(=O)c5ccc(Br)cc5)cc4)nnc3s2)cc1,256,128,256,1020,1020,1020,1020,512,512,512
O=S(=O)(c1ccc(Br)cc1)c1ccc(-c2nnc3sc(-c4cc(O)c(O)c(O)c4)nn23)cc1,128,128,256,128,256,128,128,64,512,256
O=S(=O)(c1ccc(Br)cc1)c1ccc(-c2nnc3sc(-c4ccc(Cl)c(Br)c4)nn23)cc1,64,32,128,32,256,512,1020,32,256,64
O=S(=O)(c1ccccc1)c1ccc(-c2nnc3sc(O)nn23)cc1,256,512,1020,512,256,128,512,128,256,256
O=S(=O)(c1ccc(Br)cc1)c1ccc(-c2nnc3sc(O)nn23)cc1,256,256,1020,128,256,256,256,64,256,256
C[C@@H]1[C@H](O)[C@@H](C)/C=C/C=C/C=C/C=C/C=C/C=C/C=C/[C@H](O[C@@H]2O[C@H](C)[C@@H](O)[C@H](N)[C@@H]2O)C[C@@H]2O[C@](O)(C[C@@H](O)C[C@@H](O)[C@H](O)CC[C@@H](O)C[C@@H](O)CC(=O)O[C@H]1C)C[C@H](O)[C@H]2C(=O)O [AMPHOTERICIN B],–,–,–,–,–,–,–,–,2,–
CC1(C)S[C@@H]2[C@H](NC(=O)[C@H](N)c3ccccc3)C(=O)N2[C@H]1C(=O)O [AMPICILLIN],–,–,< 2,< 2,–,–,–,< 2,–,< 2
C[C@H]1[C@H](NC(=O)/C(=N\OC(C)(C)C(=O)O)c2csc(N)n2)C(=O)N1S(=O)(=O)O [AZTREONAM],< 2,4,–,–,–,< 2,< 2,–,–,–
